Data from patent US12281118B2, “Nitrogen-containing fused heterocyclic SHP2 inhibitor compound, preparation method, and use” (SHANGHAI RINGENE BIOPHARMA CO., LTD., priority 2018, dated 2025).

Tests used:
PTP1B = PTP1B (Homo sapiens (Human), UniProt P18031); experiment: Inhibitory activity against different phosphatases; type: biochemical; conditions: read-out: IC50 against phosphatase PTP1B
Experimental: (§1) Allowing compound solutions (10 μM, 3× dilution at eight gradients) of examples reacted with phosphatases such as SHP1, LMW-PTP, LYP, MKP3, PTP1B, PTPN2, PTPN6, VHR, CDC25A, PTPRR, etc. according to a similar method shown in Test Example 1 to test the inhibitory activity of the compounds on the phosphatases described above.

SHP1 = SHP1 (Homo sapiens (Human), UniProt P29350); experiment: Inhibitory activity against different phosphatases; type: biochemical; conditions: read-out: IC50 against phosphatase SHP1
SHP1, sequence (P29350 whole entry): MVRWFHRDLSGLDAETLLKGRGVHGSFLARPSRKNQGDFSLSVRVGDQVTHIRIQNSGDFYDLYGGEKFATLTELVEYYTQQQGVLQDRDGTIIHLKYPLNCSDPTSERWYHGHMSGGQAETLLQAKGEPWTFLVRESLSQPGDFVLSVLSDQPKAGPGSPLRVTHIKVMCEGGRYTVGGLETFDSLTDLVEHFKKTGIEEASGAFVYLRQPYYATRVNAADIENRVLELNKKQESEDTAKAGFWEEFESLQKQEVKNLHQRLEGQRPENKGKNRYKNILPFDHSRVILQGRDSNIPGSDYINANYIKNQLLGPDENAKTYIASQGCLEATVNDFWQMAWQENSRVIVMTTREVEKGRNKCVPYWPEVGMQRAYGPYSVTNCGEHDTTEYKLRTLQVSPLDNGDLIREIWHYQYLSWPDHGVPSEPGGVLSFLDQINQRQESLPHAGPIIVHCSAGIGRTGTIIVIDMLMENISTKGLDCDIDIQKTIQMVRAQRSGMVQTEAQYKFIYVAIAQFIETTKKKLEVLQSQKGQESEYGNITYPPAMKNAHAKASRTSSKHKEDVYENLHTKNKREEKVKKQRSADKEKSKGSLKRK
Experimental: as §1

MOLM 13 (leukemia cells) = experiment: Cell proliferation inhibition, MTT; type: cell-based; conditions: Homo sapiens
Experimental: (§2) Incubating cells such as KYSE520 (oesophageal cancer cells), H358 (lung cancer cells), Colo-205 (colorectal cancer cells), MiaPaca-2 (pancreas cancer cells), MOLM 13 (leukemia cells), NCI—H 1666 (lung cancer cells), NCI—H 508 (lung cancer), KATO III (gastric cancer), HEK 293A (normal cells), H3255 (lung cancer), H1975 (lung cancer), PC-9 (lung cancer), A549 (lung cancer), SNU16 (gastric cancer), and H1299 (lung cancer) in a 96-well plate at 100 µl/well and 20,000 cells/mL, and supplementing 10% fetal bovine serum and 1% penicillin/streptomycin sulfate. With 0.5% dimethyl sulfoxide as a blank control, treating the cells in a solution of the test compounds under 3× dilution at an initial concentration of 10 μM in eight gradients, and incubating the plate in an incubator with 5% CO2 for a certain period of time. At the end of the incubation, adding 10 μL of an MTT stock solution (5 mg/mL) to each well. Incubating the plates at 37° C. for 4 hours, and then removing the culture medium. Adding the dimethyl sulfoxide (100 μL) to each well, and then shaking well. Measuring the absorbance of a formazan product at 570 nm on a Thermo Scientific Varioskan Flash multi-mode reader. Fitting dose-response data to a three-parameter nonlinear regression model using GraphPad Prism 6.0 software to obtain IC50 values.

[1] = test system: KATO III (gastric cancer); experiment: Cell proliferation inhibition, MTT; type: cell-based; conditions: Homo sapiens
Experimental: as §2

[2] = test system: KYSE520 (oesophageal cancer cells); experiment: Cell proliferation inhibition, MTT; type: cell-based; conditions: Homo sapiens, KYSE-520
Experimental: as §2

SNU16 (gastric cancer) = experiment: Cell proliferation inhibition, MTT; type: cell-based; conditions: Homo sapiens; SNU 16
Experimental: as §2

H358 (lung cancer cells) = experiment: Cell proliferation inhibition, MTT; type: cell-based; conditions: Homo sapiens, NCI-H358
Experimental: as §2

[3] = test system: NCI-H1666 (lung cancer cells); experiment: Cell proliferation inhibition, MTT; type: cell-based; conditions: Homo sapiens
Experimental: as §2

NCI-H 508 (lung cancer) = experiment: Cell proliferation inhibition, MTT; type: cell-based; conditions: Homo sapiens, NCI-H508
Experimental: as §2

[4] = test system: MV 4-11/KYSE520/NCI-H358 tumor cell xenografts; experiment: Xenograft study in nude mice: tolerance and westernblot assay of tumor tissues; type: in vivo
Excerpt: (§3) Experimental method: 1) Culturing MV 4-11/KYSE520/NCI-H358 cells in a culture medium containing 10% fetal bovine serum. Harvesting tumor cells at an exponential growth phase, and resuspending in PBS to suitable concentrations for subcutaneous tumor inoculation in nude mice. 2) Subcutaneously inoculating 2-8×10^7 tumor cells at the right back of a mouse, and resuspending the cells in PBS and matrigel (1:1); observing tumor growth regularly, and randomizing mice for administration based on tumor size and mouse body weight when tumors grow to a mean volume of ˜120 mm^3-1800 mm^3. 3) Defining the day of tumor cell inoculation as Day 0. Prior to the start of dosing, weighing all animals and measuring the tumor volume with a vernier caliper. 3) Administering orally compound of examples (prepared with water for injection containing 1% Tween80 to a desired concentration for use) at a given dose for three consecutive weeks, and giving an equal amount of solvent animals in a solvent control group. Measuring diameters of the xenograft twice a week throughout the experiment, and weighing the mice were at the same time.

[5] = test system: MC38 colorectal cancer xenografts; experiment: Growth inhibition of MC38 colorectal cancer xenografts in C57BL-6 mice; type: in vivo; conditions: 1 mg/kg, orally, once daily
Excerpt: as §3, with “MC38” for “MV 4-11/KYSE520/NCI-H358”, “Harvesting tumor cells at an exponential growth phase, and resuspending in PBS to suitable concentrations for subcutaneous tumor inoculation in nude mice.” left out, “[…]” for “2-8×10^7”, “˜50 mm^3-60” for “˜120 mm^3-1800”, “dose, intraperitoneally injecting an anti-PD-L1 antibody twice a week,” for “dose”, “two” for “three”
The calculation formula of tumor volume (TV) is: TV=½×a×b^2, wherein a and b represent length and width, respectively. The relative tumor volume (RTV) is calculated based on the measured results using the formula: RTV=Vt/V0, wherein V0 is the tumor volume measured at the time of dosing in separate cages (i.e., Day 0) and Vt is the tumor volume at each measurement. […]

PTP1B, sequence (P18031 whole entry, species assumed): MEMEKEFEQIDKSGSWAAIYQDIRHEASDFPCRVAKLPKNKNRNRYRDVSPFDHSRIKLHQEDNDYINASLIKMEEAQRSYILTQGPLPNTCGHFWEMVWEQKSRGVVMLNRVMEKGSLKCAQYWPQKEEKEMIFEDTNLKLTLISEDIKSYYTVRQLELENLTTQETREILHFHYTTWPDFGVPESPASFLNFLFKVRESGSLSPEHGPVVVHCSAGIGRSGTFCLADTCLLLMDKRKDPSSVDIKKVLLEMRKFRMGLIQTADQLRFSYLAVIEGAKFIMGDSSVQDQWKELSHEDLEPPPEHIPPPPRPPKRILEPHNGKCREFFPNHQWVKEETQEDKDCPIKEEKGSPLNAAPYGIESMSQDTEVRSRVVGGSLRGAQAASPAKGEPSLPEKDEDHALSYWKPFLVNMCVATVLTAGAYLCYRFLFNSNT

Row | Compound | IC50 (PTP1B) [nM] | IC50 (SHP1) [nM] | IC50 (MOLM 13 (leukemia cells)) [nM] | IC50 [1] [nM] | IC50 [2] [nM] | IC50 (SNU16 (gastric cancer)) [nM] | IC50 (H358 (lung cancer cells)) [nM] | IC50 [3] [nM] | IC50 (NCI-H 508 (lung cancer)) [nM] | inhibition of the signaling pathway in tumor tissues (westernblot) ([4]; 24 hours after the last dosing) | tolerance of the experimental animals ([4]; nude mice with xenografts, oral dosing for three weeks) | T/C [5] [%]
1 | Cc1nc(N2CCC3(CC2)Cc2ccccc2[C@H]3N)n2ccnc2c1Sc1ccnc(N)c1Cl [Example 1, (S)-1′-(8-((2-amino-3-chloropyridin-4-yl)thio)-7-methylimidazo [1,2-c]pyrimidin-5-yl)-1,3-dihydrospiro [indene-2,4′-piperidine]-1-amine] | > 500 | > 500 | < 100 | < 1000 | < 100 | < 1000 | < 100 | < 100 | < 100 | can still inhibit the signaling pathway in tumor tissues continuously 24 hours after the last dosing | well tolerated | 60
2 | Nc1nccc(Sc2c(N)nc(N3CCC4(CC3)Cc3ccccc3[C@H]4N)n3ccnc23)c1Cl [Example 4, (S)-1′-(7-amino-8-((2-amino-3-chloropyridin-4-yl)thio)imidazo [1,2-c]pyrimidin-5-yl)-1,3-dihydrospiro [indene-2,4′-piperidine]-1-amine] | > 500 | > 500 | < 100 | < 1000 | < 100 | < 1000 | < 100 | < 100 | < 100 | – | – | –
